Test results as given in patent publication US11236047B2 (ASTEX THERAPEUTICS LIMITED, priority 2017, dated 2022).
Read-outs that look alike come from different tables or passages of the source.

System: SJSA-1 cells
Test: Protocol B: SJSA-1 CellTiter-Glo luminescent cell viability assay
[1] = read-out: SJSA1 IC50, Protocol B, SJSA-1
[2] = read-out: SJSA1 IC50 (μM) (Protocol B), SJSA-1, Protocol B
[3] = Homo sapiens, SJSA-1, read-out: SJSA1 IC50 (μM) (Protocol B), SJSA-1, Protocol B

SMILES	IC50 [2] [µM]	IC50 [3] [µM]	further results
CCC(O)(CN1CCN(C)CC1)c1cc(F)c2c(c1)C(=O)N(Cc1ncc(Cl)cn1)[C@@]2(OCCO)c1ccc(Cl)cc1 (single isomer, unassigned) [Example 532]			IC50 [1]: 0.14 µM
CC(O)(c1cc(F)c2c(c1)C(=O)N(Cc1ccc(C#N)cn1)[C@@]2(OCCO)c1ccc(Cl)cc1)C1CCC1 (single isomer, unassigned) [Example 406]	3.9		
CC(O)(c1cc(F)c2c(c1)C(=O)N(Cc1ccc(Cl)cn1)[C@@]2(OCCO)c1ccc(Cl)cc1)C1CCS(=O)(=O)CC1 (single isomer, unassigned) [Example 313]		0.95	
CCn1cc(C(C)(O)c2cc(F)c3c(c2)C(=O)N(Cc2ccc(Cl)cn2)[C@@]3(OCC2(O)CC2)c2ccc(Cl)cc2)cn1 (single isomer, unassigned) [Example 184]	0.14		
CO[C@]1(c2ccc(Cl)cc2)c2c(F)cc(C(C)(O)C3CCN(C(=O)CN(C)C)CC3)cc2C(=O)N1Cc1ccc(Cl)cn1 (single isomer, unassigned) [Example 298]	0.55		
Cn1cc(C(C)(O)c2cc(F)c3c(c2)C(=O)N(Cc2ncc(Cl)cn2)[C@@]3(OCC2(O)CC2)c2ccc(Cl)cc2)cn1 (single isomer, unassigned) [Example 203]	0.08		
[2H]C([2H])([2H])OCC(C)(O)c1cc(F)c2c(c1)C(=O)N(C([2H])([2H])c1ccc(Cl)cn1)[C@@]2(O[C@H]1CCOC1)c1ccc(Cl)cc1 (single isomer, unassigned) [Example 143]	0.86		
CO[C@]1(c2ccc(Cl)cc2)c2c(F)cc(C(C)(O)c3cnn(CCN(C)C)c3)cc2C(=O)N1Cc1ccc(Cl)cn1 (stereo partly drawn) [Example 191, (3R)-3-(4-Chlorophenyl)-2-[(5-chloropyridin-2-yl)methyl]-6-(1-{1-[2-(dimethylamino)ethyl]-1H-pyrazol-4-yl}-1-hydroxyethyl)-4-fluoro-3-methoxy-2,3-dihydro-1H-isoindol-1-one]		2.5	
CCC(O)(c1cc(F)c2c(c1)C(=O)N(Cc1ncc(C#N)cn1)[C@@]2(O[C@H]1CCOC1)c1ccc(Cl)cc1)c1cn(C)cn1 (single isomer, unassigned) [Example 369]			IC50 [1]: 0.062 µM
CO[C@]1(c2ccc(Cl)cc2)c2c(F)cc(C(C)(O)c3cnn(CCN(C)C)c3)cc2C(=O)N1Cc1ccc(Cl)cn1 (stereo partly drawn) [Example 192, (3R)-3-(4-Chlorophenyl)-2-[(5-chloropyridin-2-yl)methyl]-6-(1-{1-[2-(dimethylamino)ethyl]-1H-pyrazol-4-yl}-1-hydroxyethyl)-4-fluoro-3-methoxy-2,3-dihydro-1H-isoindol-1-one]	1.4		
CCC(O)(c1cc(F)c2c(c1)C(=O)N(Cc1ncc(C#N)cn1)[C@@]2(OC[C@H]1C[C@H](O)C1)c1ccc(Cl)cc1)c1cn(C)cn1 (single isomer, unassigned) [Example 484]			IC50 [1]: 4.9 µM
Cn1cc(C(C)(O)c2cc(F)c3c(c2)C(=O)N(Cc2ccc(Cl)cn2)[C@@]3(OCC2(O)CC2)c2ccc(Cl)cc2)cn1 (single isomer, unassigned) [Example 200]	0.099		
Cn1cc(C(C)(O)c2cc(F)c3c(c2)C(=O)N(Cc2ccc(F)cn2)[C@@]3(OCC2(C(N)=O)CC2)c2ccc(Cl)cc2)cn1 (stereo partly drawn) [Example 209, 1-({[(1R)-1-(4-chlorophenyl)-7-fluoro-2-[(5-fluoropyridin-2-yl)methyl]-5-[1-hydroxy-1-(1-methyl-1H-pyrazol-4-yl)ethyl]-3-oxo-2,3-dihydro-1H-isoindol-1-yl]oxy}methyl)cyclopropane-1-carboxamide]		0.45	
Cn1cc(C(C)(O)c2cc(F)c3c(c2)C(=O)N(Cc2ncc(Cl)cn2)[C@@]3(OCC2(CO)CC2)c2ccc(Cl)cc2)cn1 (single isomer, unassigned) [Example 348]	0.27		
CCC(O)(c1cc(F)c2c(c1)C(=O)N(Cc1ccc(C#N)cn1)[C@@]2(OCC1(CO)CC1)c1ccc(Cl)cc1)c1cn(C)cn1 (single isomer, unassigned) [Example 337]			IC50 [1]: 0.058 µM
Cc1nc(C(C)(O)c2cc(F)c3c(c2)C(=O)N(Cc2ccc(Cl)cn2)[C@@]3(OCC2(C(N)=O)CC2)c2ccc(Cl)cc2)cn1C (single isomer, unassigned) [Example 197]		0.21	
COc1ccc(CN2C(=O)c3cc(C(C)(O)c4cnn(C)c4)cc(F)c3[C@]2(OCC2(CO)CC2)c2ccc(Cl)cc2)cn1 (stereo partly drawn) [Example 219, (3R)-3-(4-chlorophenyl)-4-fluoro-6-[1-hydroxy-1-(1-methyl-1H-pyrazol-4-yl)ethyl]-3-{[1-(hydroxymethyl)cyclopropyl]methoxy}-2-[(6-methoxypyridin-3-yl)methyl]-2,3-dihydro-1H-isoindol-1-one]	0.11		

SMILES	IC50 [2] [µM]	IC50 [3] [µM]	further results
Cn1cnc(C(C)(O)c2cc(F)c3c(c2)C(=O)N(Cc2ccc(Cl)cn2)[C@@]3(OCC2(O)CC2)c2ccc(Cl)cc2)c1 (single isomer, unassigned) [Example 196]	0.15		
[2H]C([2H])([2H])OCC(C)(O)c1cc(F)c2c(c1)C(=O)N(C([2H])([2H])c1ccc(Cl)cn1)[C@@]2(O[C@H]1CCOC1)c1ccc(Cl)cc1 (single isomer, unassigned) [Example 142]	0.23		
CN1CCN(CC(C)(O)c2cc(F)c3c(c2)C(=O)N(Cc2ccc(C#N)cn2)[C@@]3(OCC2(C#N)CC2)c2ccc(Cl)cc2)CC1 (single isomer, unassigned) [Example 279]	0.57		
Cn1cc(C(C)(O)c2cc(F)c3c(c2)C(=O)N(Cc2ccc(C#N)cn2)[C@@]3(OCC2(C#N)CC2)c2ccc(Cl)cc2)cn1 (stereo partly drawn) [Example 211, 6-{[(1R)-1-(4-chlorophenyl)-1-[(1-cyanocyclopropyl)methoxy]-7-fluoro-5-[1-hydroxy-1-(1-methyl-1H-pyrazol-4-yl)ethyl]-3-oxo-2,3-dihydro-1H-isoindol-2-yl]methyl}pyridine-3-carbonitrile]		0.36	
CO[C@]1(c2ccc(Cl)cc2)c2c(F)cc(C(C)(O)C3CN(C(=O)CO)C3)cc2C(=O)N1Cc1ccc(Cl)cn1 (stereo partly drawn) [Example 391, (3R)-3-(4-chlorophenyl)-2-[(5-chloropyridin-2-yl)methyl]-4-fluoro-6-{1-hydroxy-1-[1-(2-hydroxyacetyl)azetidin-3-yl]ethyl}-3-methoxy-2,3-dihydro-1H-isoindol-1-one]		0.66	
CC(O)(CN1CCCC1)c1cc(F)c2c(c1)C(=O)N(Cc1ccc(C#N)cn1)[C@@]2(OCC1(C#N)CC1)c1ccc(Cl)cc1 (single isomer, unassigned) [Example 277]	1.2		
O=C1c2cc(C(O)C3CCS(=O)(=O)CC3)cc(F)c2[C@](OCC2(O)CC2)(c2ccc(Cl)cc2)N1Cc1ncc(Cl)cn1 (stereo partly drawn) [Example 400, 4-{[(1R)-1-(4-chlorophenyl)-2-[(5-chloropyrimidin-2-yl)methyl]-7-fluoro-1-[(1-hydroxycyclopropyl)methoxy]-3-oxo-2,3-dihydro-1H-isoindol-5-yl](hydroxy)methyl}-1λ6-thiane-1,1-dione]			IC50 (Homo sapiens, SJSA-1, read-out: SJSA1 IC50 (μM), Protocol B, SJSA-1): 1.1 µM
Cn1cc(C(C)(O)c2cc(F)c3c(c2)C(=O)N(Cc2ccc(Cl)c[n+]2[O-])[C@@]3(OCC2(O)CC2)c2ccc(Cl)cc2)cn1 (stereo partly drawn) [Example 409, (3R)-2-[(5-chloro-1-oxo-1λ^5-pyridin-2-yl)methyl]-3-(4-chlorophenyl)-4-fluoro-6-[1-hydroxy-1-(1-methyl-1H-pyrazol-4-yl)ethyl]-3-[(1-hydroxycyclopropyl)methoxy]-2,3-dihydro-1H-isoindol-1-one]		0.41	
CC(C)(O)c1cc(F)c2c(c1)C(=O)N([C@@H](CO)c1ccc(Cl)cn1)[C@@]2(OCC1(CO)CC1)c1ccc(Cl)cc1 [Example 418, (3R)-3-(4-Chlorophenyl)-2-[(1R)-1-(5-chloropyridin-2-yl)-2-hydroxyethyl]-4-fluoro-3-{[1-(hydroxymethyl)cyclopropyl]methoxy}-6-(2-hydroxypropan-2-yl)-2,3-dihydro-1H-isoindol-1-one]		0.28	
Cn1cc(C(C)(O)c2cc(F)c3c(c2)C(=O)N(Cc2ccc(Cl)cn2)[C@@]3(OCC2(C(N)=O)CC2)c2ccc(Cl)cc2)cn1 (single isomer, unassigned) [Example 178]		0.1	
CC(O)(c1cc(F)c2c(c1)C(=O)N(Cc1ncc(Cl)cn1)[C@@]2(OCC1(C(N)=O)CC1)c1ccc(Cl)cc1)C1CCOCC1 (stereo partly drawn) [Example 284, 1-({[(1R)-1-(4-chlorophenyl)-2-[(5-chloropyrimidin-2-yl)methyl]-7-fluoro-5-[1-hydroxy-1-(oxan-4-yl)ethyl]-3-oxo-2,3-dihydro-1H-isoindol-1-yl]oxy}methyl)cyclopropane-1-carboxamide]		0.017	
Cn1cc(C(C)(O)c2cc(F)c3c(c2)C(=O)N(Cc2ncc(Cl)cn2)[C@@]3(OCC2(CO)CC2)c2ccc(Cl)cc2)cn1 (single isomer, unassigned) [Example 349]	0.028		
CC(O)(c1cc(F)c2c(c1)C(=O)N(Cc1ncc(Cl)cn1)[C@@]2(OCC1(C(N)=O)CC1)c1ccc(Cl)cc1)C1CCC1 (single isomer, unassigned) [Example 404]	0.095		
Cc1nnc(C(C)(O)c2cc(F)c3c(c2)C(=O)N(Cc2ccc(Cl)cn2)[C@@]3(OCC2(O)CC2)c2ccc(Cl)cc2)o1 (single isomer, unassigned) [Example 185]	2.2		
COc1ccc(CN2C(=O)c3cc(C(C)(O)c4cnn(C)c4)cc(F)c3[C@]2(OCC2(CO)CC2)c2ccc(Cl)cc2)nc1 (stereo partly drawn) [Example 224, (3R)-3-(4-chlorophenyl)-4-fluoro-6-[1-hydroxy-1-(1-methyl-1H-pyrazol-4-yl)ethyl]-3-{[1-(hydroxymethyl)cyclopropyl]methoxy}-2-[(5-methoxypyridin-2-yl)methyl]-2,3-dihydro-1H-isoindol-1-one]	0.12		
Cn1cc(C(C)(O)c2cc(F)c3c(c2)C(=O)N(Cc2ccc(C#N)cn2)[C@@]3(O[C@H]2C[C@@H](O)C2)c2ccc(Cl)cc2)cn1 (single isomer, unassigned) [Example 356, 6-{[1-(4-chlorophenyl)-7-fluoro-5-[1-hydroxy-1-(1-methyl-1H-pyrazol-4-yl)ethyl]-3-oxo-1-[cis-3-hydroxycyclobutoxy]-2,3-dihydro-1H-isoindol-2-yl]methyl}pyridine-3-carbonitrile]	0.96		
